The values below come from ChEMBL document CHEMBL3124843, “Synthesis, cytostatic, antimicrobial, and anti-HCV activity of 6-substituted 7-(het)aryl-7-deazapurine ribonucleosides” (J Med Chem, 2014).

The term IC50 denotes the point on the concentration scale where inhibition reaches its midpoint.

The subject of this assay is Mycobacterium tuberculosis. Description: Antimycobacterial activity against Mycobacterium bovis BCG after 5 days by MTT assay. It is filed as functional, organism-based. The settings on record: variant bovis BCG, 120 h. A general note: Tetrazolium dyes change colour on reduction, which living cells bring about.

The compound `Cc1ncnc2c1ccn2[C@@H]1O[C@H](CO)[C@@H](O)[C@H]1O` yielded an IC50 of 0.3 µM. This lies in the sub-micromolar range.
The compound `Nc1ncnc2c1c(-c1ccco1)cn2[C@@H]1O[C@H](CO)[C@@H](O)[C@H]1O` showed a 50% inhibitory concentration (IC50) of 17.4 µM.
Consider `Nc1ncnc2c1c(-c1cccs1)cn2[C@@H]1O[C@H](CO)[C@@H](O)[C@H]1O`, for which inhibition was half-maximal at 4.73 µM (IC50).
In the case of `O=c1[nH]cnc2c1c(-c1cccs1)cn2[C@@H]1O[C@H](CO)[C@@H](O)[C@H]1O`, the IC50 is > 100 µM.
Turning to `Cc1nc(N)c2c(I)cn([C@@H]3O[C@H](CO)[C@@H](O)[C@H]3O)c2n1`, the half-maximal inhibitory concentration (IC50) was > 100 µM.
`COc1nc(N)nc2c1c(-c1ccco1)cn2[C@@H]1O[C@H](CO)[C@@H](O)[C@H]1O`: the IC50 is > 100 µM.
As for `COc1nc(N)nc2c1c(-c1ccoc1)cn2[C@@H]1O[C@H](CO)[C@@H](O)[C@H]1O`, the figure is > 100 µM.
Consider `COc1nc(N)nc2c1c(-c1cccs1)cn2[C@@H]1O[C@H](CO)[C@@H](O)[C@H]1O`, for which the IC50 was > 100 µM.
As for `COc1nc(N)nc2c1c(-c1ccsc1)cn2[C@@H]1O[C@H](CO)[C@@H](O)[C@H]1O`, the figure is > 100 µM.
Take `COc1nc(N)nc2c1c(-c1ccccc1)cn2[C@@H]1O[C@H](CO)[C@@H](O)[C@H]1O`: the IC50 was > 100 µM.
On to `COc1nc(N)nc2c1c(-c1cc3ccccc3o1)cn2[C@@H]1O[C@H](CO)[C@@H](O)[C@H]1O`, for which the IC50 is > 100 µM.
Regarding `C#Cc1cn([C@@H]2O[C@H](CO)[C@@H](O)[C@H]2O)c2nc(N)nc(OC)c12`, the IC50 was > 100 µM.
Take `Nc1nc2c(c(-c3ccco3)cn2[C@@H]2O[C@H](CO)[C@@H](O)[C@H]2O)c(=O)[nH]1`: the IC50 is > 100 µM.
As for `Nc1nc2c(c(-c3ccoc3)cn2[C@@H]2O[C@H](CO)[C@@H](O)[C@H]2O)c(=O)[nH]1`, the figure is > 100 µM; as for `Nc1nc2c(c(-c3cccs3)cn2[C@@H]2O[C@H](CO)[C@@H](O)[C@H]2O)c(=O)[nH]1`, > 100 µM; as for `Nc1nc2c(c(-c3ccsc3)cn2[C@@H]2O[C@H](CO)[C@@H](O)[C@H]2O)c(=O)[nH]1`, > 100 µM.
Consider `Nc1nc2c(c(-c3ccccc3)cn2[C@@H]2O[C@H](CO)[C@@H](O)[C@H]2O)c(=O)[nH]1`, for which the IC50 was > 100 µM.
With `Nc1nc2c(c(-c3cc4ccccc4o3)cn2[C@@H]2O[C@H](CO)[C@@H](O)[C@H]2O)c(=O)[nH]1`, the IC50 is > 100 µM.
As to `O=c1[nH]cnc2c1c(-c1ccco1)cn2[C@@H]1O[C@H](CO)[C@@H](O)[C@H]1O`, the IC50 was > 100 µM.
For `O=c1[nH]cnc2c1c(-c1ccoc1)cn2[C@@H]1O[C@H](CO)[C@@H](O)[C@H]1O`, the IC50 is > 100 µM.
As for `O=c1[nH]cnc2c1c(-c1ccsc1)cn2[C@@H]1O[C@H](CO)[C@@H](O)[C@H]1O`, the figure is > 100 µM; as for `O=c1[nH]cnc2c1c(-c1ccccc1)cn2[C@@H]1O[C@H](CO)[C@@H](O)[C@H]1O`, > 100 µM.
With `O=c1[nH]cnc2c1c(-c1cc3ccccc3o1)cn2[C@@H]1O[C@H](CO)[C@@H](O)[C@H]1O`, the IC50 is > 100 µM.
As for `Nc1nc(N)c2c(-c3ccco3)cn([C@@H]3O[C@H](CO)[C@@H](O)[C@H]3O)c2n1`, the figure is 84 µM; as for `Nc1nc(N)c2c(-c3ccoc3)cn([C@@H]3O[C@H](CO)[C@@H](O)[C@H]3O)c2n1`, 71.5 µM; as for `Nc1nc(N)c2c(-c3cccs3)cn([C@@H]3O[C@H](CO)[C@@H](O)[C@H]3O)c2n1`, 2.44 µM.
Consider `Nc1nc(N)c2c(-c3ccsc3)cn([C@@H]3O[C@H](CO)[C@@H](O)[C@H]3O)c2n1`, for which the half-maximal inhibitory concentration (IC50) is > 100 µM.
Compound `Nc1nc(N)c2c(-c3ccccc3)cn([C@@H]3O[C@H](CO)[C@@H](O)[C@H]3O)c2n1` came in with an IC50 of 8.53 µM.
`Nc1nc(N)c2c(-c3cc4ccccc4o3)cn([C@@H]3O[C@H](CO)[C@@H](O)[C@H]3O)c2n1` yielded an IC50 of 24.6 µM.
As for `Cc1nc(N)c2c(-c3ccco3)cn([C@@H]3O[C@H](CO)[C@@H](O)[C@H]3O)c2n1`, the figure is > 100 µM; as for `Cc1nc(N)c2c(-c3ccoc3)cn([C@@H]3O[C@H](CO)[C@@H](O)[C@H]3O)c2n1`, > 100 µM.
`Cc1nc(N)c2c(-c3cccs3)cn([C@@H]3O[C@H](CO)[C@@H](O)[C@H]3O)c2n1` returned a concentration for half-maximal inhibition (IC50) of 82.7 µM.
For `Cc1nc(N)c2c(-c3ccsc3)cn([C@@H]3O[C@H](CO)[C@@H](O)[C@H]3O)c2n1`, the IC50 is > 100 µM.
As for `Cc1nc(N)c2c(-c3ccccc3)cn([C@@H]3O[C@H](CO)[C@@H](O)[C@H]3O)c2n1`, the figure is > 100 µM; as for `Cc1nc(N)c2c(-c3cc4ccccc4o3)cn([C@@H]3O[C@H](CO)[C@@H](O)[C@H]3O)c2n1`, > 100 µM; as for `C#Cc1cn([C@@H]2O[C@H](CO)[C@@H](O)[C@H]2O)c2nc(C)nc(N)c12`, > 100 µM.
As for `Cc1nc(N)c2ccn([C@@H]3O[C@H](CO)[C@@H](O)[C@H]3O)c2n1`, the figure is > 100 µM; as for `CNc1ncnc2c1ccn2[C@@H]1O[C@H](CO)[C@@H](O)[C@H]1O`, 87.1 µM.
Regarding `CN(C)c1ncnc2c1c(-c1ccsc1)cn2[C@@H]1O[C@H](CO)[C@@H](O)[C@H]1O`, the IC50 was > 100 µM.
For `CN(C)c1ncnc2c1c(-c1ccccc1)cn2[C@@H]1O[C@H](CO)[C@@H](O)[C@H]1O`, the IC50 was > 100 µM.
For `CN(C)c1ncnc2c1c(-c1cc3ccccc3o1)cn2[C@@H]1O[C@H](CO)[C@@H](O)[C@H]1O`, the IC50 was > 100 µM.
As for `C#Cc1cn([C@@H]2O[C@H](CO)[C@@H](O)[C@H]2O)c2ncnc(N(C)C)c12`, the figure is > 100 µM; as for `CN(C)c1ncnc2c1ccn2[C@@H]1O[C@H](CO)[C@@H](O)[C@H]1O`, > 100 µM; as for `CN(C)c1ncnc2c1c(I)cn2[C@@H]1O[C@H](CO)[C@@H](O)[C@H]1O`, > 100 µM.
As for `Cc1ncnc2c1c(-c1ccco1)cn2[C@@H]1O[C@H](CO)[C@@H](O)[C@H]1O`, the figure is 38.9 µM; as for `Cc1ncnc2c1c(-c1ccoc1)cn2[C@@H]1O[C@H](CO)[C@@H](O)[C@H]1O`, 9.3 µM; as for `Cc1ncnc2c1c(-c1cccs1)cn2[C@@H]1O[C@H](CO)[C@@H](O)[C@H]1O`, 14 µM.
In turn, `Cc1ncnc2c1c(-c1ccsc1)cn2[C@@H]1O[C@H](CO)[C@@H](O)[C@H]1O` yielded an IC50 of 18.5 µM.
`Cc1ncnc2c1c(-c1ccccc1)cn2[C@@H]1O[C@H](CO)[C@@H](O)[C@H]1O` registered an IC50 of 26.5 µM.
For the compound `Cc1ncnc2c1c(-c1cc3ccccc3o1)cn2[C@@H]1O[C@H](CO)[C@@H](O)[C@H]1O`, the IC50 worked out at 2.1 µM.
Take `C#Cc1cn([C@@H]2O[C@H](CO)[C@@H](O)[C@H]2O)c2ncnc(C)c12`: the 50% inhibitory concentration (IC50) turned out to be 42.9 µM.
Compound `Cc1ncnc2c1c(I)cn2[C@@H]1O[C@H](CO)[C@@H](O)[C@H]1O` showed an IC50 of 51.4 µM.
As for `Cc1ncnc2c1c(Br)cn2[C@@H]1O[C@H](CO)[C@@H](O)[C@H]1O`, the figure is 20.8 µM.
`COc1ncnc2c1c(-c1cc3ccccc3o1)cn2[C@@H]1O[C@H](CO)[C@@H](O)[C@H]1O` yielded an IC50 of 73.5 µM.
For the compound `CSc1ncnc2c1c(-c1ccsc1)cn2[C@@H]1O[C@H](CO)[C@@H](O)[C@H]1O`, the IC50 is 98.6 µM. This IC50 and that of the compound before are within 1.5-fold of each other.
In turn, `CSc1ncnc2c1ccn2[C@@H]1O[C@H](CO)[C@@H](O)[C@H]1O` registered an IC50 of 96.8 µM.
The compound `CSc1ncnc2c1c(I)cn2[C@@H]1O[C@H](CO)[C@@H](O)[C@H]1O` gave an IC50 of 87.1 µM. The IC50 values of the last two compounds are within 1.5-fold of each other.
For the compound `CNc1ncnc2c1c(I)cn2[C@@H]1O[C@H](CO)[C@@H](O)[C@H]1O`, half-maximal inhibition (IC50) was put at 99.9 µM.
